The numbers were not newly measured in patent US10570353B2, “Cleaning compositions” (Ascent IP Holdings, LLC, priority 2009, dated 2020), which cites them from elsewhere.

The conditions of data set [1]: identified from data sources.
The conditions of data set [2]: trace constituents of Trilon M Liquid.
For data set [3] the following is noted: published toxicity data.
The conditions of data set [4]: supplier's nominal lipase activity.

With `Cn1sccc1=O` [2-Methyl-4-isothiazolin-3-one], the skin sensitizer listing result in data set [1] is reported as “skin sensitizers”. On to `Cn1sc(Cl)cc1=O` [5-Chloro-2-Methyl-4-isothiazolin-3-one], for which the skin sensitizer listing result in data set [1] is given as “skin sensitizers”.

Regarding `C=O` [formaldehyde], the carcinogenicity listing result in data set [2] is given as “suspected carcinogens”. `OO` [hydrogen peroxide]: the mutagenicity entry in data set [3] is “potential risk for mutagenicity”. In data set [1], the skin sensitizer listing entry is “skin sensitizers”. For `[Na+].[OH-]` [sodium hydroxide], in data set [1], the skin sensitizer listing entry was “skin sensitizers”. `O=C([O-])CN(CC(=O)[O-])CC(=O)[O-].[Na+].[Na+].[Na+]` [trisodium nitrilotriacetate]: the carcinogenicity listing result in data set [2] is given as “suspected carcinogens”. As to cocamidopropyl betaine, in data set [1], the skin sensitizer listing result was “skin sensitizers”.

B1: LIPOLASE® 100L: lipase derived from Thermomyces lanuginosus, from Novo-Nordisk A/S, liquid solution (protein, UniProt O59952 23-291, looked up)
Lipase: EVSQDLFNQFNLFAQYSAAAYCGKNNDAPAGTNITCTGNACPEVEKADATFLYSFEDSGVGDVTGFLALDNTNKLIVLSFRGSRSIENWIGNLNFDLKEINDICSGCRGHDGFTSSWRSVADTLRQKVEDAVREHPDYRVVFTGHSLGGALATVAGADLRGNGYDIDVFSYGAPRVGNRAFAEFLTVQTGGTLYRITHTNDIVPRLPPREFGYSHSSPEYWIKSGTLVPVTRNDIVKIEGIDATGGNNQPNIPDIPAHLWYFGLIGTCL
modifications: liquid commercial formulation
notes: lipase derived from Thermomyces lanuginosus, from Novo-Nordisk A/S, liquid solution
As to B1, the nominal activity in data set [4] is 100 kLU/g.

B2: LIPOLASE® 100T: lipase derived from Thermomyces lanuginosus, from Novo-Nordisk A/S, granular solid (protein, UniProt O59952 23-291, looked up)
Lipase: B1 Lipase
modifications: granular commercial formulation
notes: lipase derived from Thermomyces lanuginosus, from Novo-Nordisk A/S, granular solid
As for B2, the nominal activity in data set [4] is on record as 100 kLU/g.
